# Source: patent US7683162B2, “Process of preparing a crystalline azithromycin monohydrate” (Taro Pharmaceutical Industries Limited, priority 2004, dated 2010)
# Where two headings read alike, the source gives them in different places.
# Tests used:
# [1] = cited from earlier work; for hygroscopicity (in words) / stability (in words): as described in the cited patent or publication
# [2] = Storage of crystalline azithromycin monohydrate under ambient conditions (25° C. and 60% relative humidity); format: physicochemical
# Source text: (§1) The drying step in step (d) may be performed in stages. To achieve the desired water content, the isolated precipitate may first be dried for a period of time; and then dried for a subsequent period of time. Water content may be conveniently determined at different stages to ensure that a specified water content is achieved. Drying time and conditions may be easily optimized by one skilled in the art. Water content determination is in accordance to U.S. Pharmacopeia (USP) <921> Method I, which is incorporated herein by reference in its entirety.
# (§2) (i) Chromatographic Conditions—The purity of a crystalline azithromycin monohydrate sample was determined using a high performance liquid chromatography (HPLC) instrument with a variable wavelength detector. The chromatographic conditions were: (i) Column—Xterra RP-18, endcapped 5 μm, 250×4.6 mm or equivalent; (ii) Flow Rate—1.0 mL/min; (iii) Column temperature—28° C.; (iv) Detection—UV at 215 nm; (v) Injection volume—20 μL; (vi) Run time—30 min; and, (vii) Mobile phase,Borate buffer pH=9.5: Acetonitrile (1:1, v/v). The mobile phase was prepared by adding NaOH (5N) to a solution of boric acid (about 1.2 grams) in water (1,000 mL; HPLC grade) to obtain a pH of 9.5.
# (§3) (ii) Standard Solution for Purity Determination—A standard solution for purity determination was prepared by dissolving azithromycin monohydrate (about 50 mg, accurately weighed), in sufficient acetonitrile to fill a 25 mL volumetric flask. The azithromycin monohydrate used in the standard solution was prepared according to the procedure set forth in U.S. Pat. No. 6,268,489.
# (§4) (iii) Preparation of Crystalline Azithromycin Monohydrate Sample Solution—A crystalline azithromycin monohydrate sample solution was prepared by transferring approximately 50 mg of the crystalline azithromycin monohydrate sample to be assayed into a 25 mL volumetric flask and diluting to volume with acetonitrile.
# (§5) (iv) HPLC Protocol—The retention time of azithromycin was about 20 minutes. The retention time of azaerythromycin was about 13 minutes. Six replicates of the standard solution for determination of impurities, and 5 replicates of the standard solution for purity determination were injected into the HPLC system. The relative standard deviation of 5 replicate injections of the standard solution for purity determination was not more than 2.0%. The relative standard deviation of 6 replicate injections of the standard solution for determination of impurities was not more than 5.0%. If necessary, the mobile phase composition and/or flow rate were adjusted to meet the chromatographic parameters. The limit of detection for azaerythromycin was 0.04%. The limit of quantitation for azaerythromycin was 0.04%. The limit of detection for azithromycin was 0.04%. The limit of quantitation for azithromycin was 0.05%.
# (§6) [formula] The terms are defined as follows: (i) Wst=Weight of standard in mg; (ii) Wsm=Weight of sample in mg; (iii) Ssm=Peak area of azithromycin obtained from sample solution; (iv) Sst=Average peak area of azithromycin obtained from standard solution for purity determination; (v) Pst=Purity of azithromycin standard in percent; and (vi) Msm=Water content of sample in percent. (B) Determination of Ethanol Content of Crystalline Azithromycin Monohydrate
# (§7) The hygroscopicity of a crystalline azithromycin monohydrate was determined by monitoring its water content during storage. Specifically, the water content of the crystalline azithromycin monohydrate was determined at time zero and at various times thereafter during storage (e.g., 1, 2, and 3 months) under ambient conditions and accelerated conditions.
# [3] = Storage of crystalline azithromycin monohydrate under accelerated conditions (40° C. and 75% relative humidity); format: physicochemical
# Source text: as §1, §2, §3, §4, §5, §6, §7
# [4] = 3 months at 25° C. and 60% relative humidity
# [5] = 25° C., 60% relative humidity, 0 months
# [6] = 25° C., 60% relative humidity, 3 months
# [7] = 3 months at 40° C. and 75% relative humidity
# [8] = 40° C., 75% relative humidity, 0 months
# [9] = 40° C., 75% relative humidity, 1 month
# [10] = 40° C., 75% relative humidity, 2 months
# [11] = 40° C., 75% relative humidity, 3 months
compound,measurement,setting,value
CC[C@H]1OC(=O)[C@H](C)[C@@H](O[C@H]2C[C@@](C)(OC)[C@@H](O)[C@H](C)O2)[C@H](C)[C@@H](O[C@@H]2O[C@H](C)C[C@H](N(C)C)[C@H]2O)[C@](C)(O)C[C@@H](C)CN(C)[C@H](C)[C@@H](O)[C@]1(C)O [azithromycin dihydrate],hygroscopicity (in words),[1],non-hygroscopic
same,stability (in words),[1],stable
CC[C@H]1OC(=O)[C@H](C)[C@@H](O[C@H]2C[C@@](C)(OC)[C@@H](O)[C@H](C)O2)[C@H](C)[C@@H](O[C@@H]2O[C@H](C)C[C@H](N(C)C)[C@H]2O)[C@](C)(O)C[C@@H](C)CN(C)[C@H](C)[C@@H](O)[C@]1(C)O.O [azithromycin monohydrate form],hygroscopicity (in words),[1],non-hygroscopic
same,stability (in words),[1],stable
CC[C@H]1OC(=O)[C@H](C)[C@@H](O[C@H]2C[C@@](C)(OC)[C@@H](O)[C@H](C)O2)[C@H](C)[C@@H](O[C@@H]2O[C@H](C)C[C@H](N(C)C)[C@H]2O)[C@](C)(O)C[C@@H](C)CN(C)[C@H](C)[C@@H](O)[C@]1(C)O [azithromycin monohydrate],hygroscopicity (in words),[1],hygroscopic
same,stability (in words),[1],unstable
"CC[C@H]1OC(=O)[C@H](C)[C@@H](OC2CC(C)(OC)C(O)C(C)O2)[C@H](C)[C@@H](OC2OC(C)CC(N(C)C)C2O)[C@](C)(O)C[C@@H](C)CN(C)[C@H](C)C(O)[C@]1(C)O (stereo partly drawn) [azithromycin, 9-deoxo-9a-aza-9a-methyl-9a-homoerythromycin A]",stability under acidic conditions,"[1]; acidic conditions, U.S. Pat. No. 6,586,576 B2",unstable
CC[C@H]1OC(=O)[C@H](C)[C@@H](O[C@H]2C[C@@](C)(OC)[C@@H](O)[C@H](C)O2)[C@H](C)[C@@H](O[C@@H]2O[C@H](C)C[C@H](N(C)C)[C@H]2O)[C@](C)(O)C[C@@H](C)CN(C)[C@H](C)[C@@H](O)[C@]1(C)O.O [crystalline azithromycin monohydrate],hygroscopicity (in words),[2]; [4],non-hygroscopic
same,stability (in words),[2]; [4],stable
same,water content after storage (in words),[2]; 3 months under ambient conditions,remained substantially unchanged
same,degradation products present after storage,"[2]; 3 months, ambient (room temperature)",less than 2 % (w/w)
same,Appearance,[2]; [5],White crystalline
same,Azaerythromycin,[2]; [5],0.3%
same,"Other Impurities, RRT = 0.23",[2]; [5],"RRT = 0.23, % = 0.10"
same,"Other Impurities, RRT = 0.26",[2]; [5],"RRT = 0.26, % = 0.20"
same,"Other Impurities, RRT = 0.34",[2]; [5],"RRT = 0.34, % = 0.10"
same,"Other Impurities, RRT = 0.42",[2]; [5],"RRT = 0.42, % = 0.30"
same,"Other Impurities, RRT = 0.45",[2]; [5],"RRT = 0.45, % = 0.07"
same,"Other Impurities, RRT = 0.48",[2]; [5],"RRT = 0.48, % = 0.20"
same,"Other Impurities, RRT = 1.45",[2]; [5],"RRT = 1.45, % = 0.05"
same,"Other Impurities, RRT = 1.50",[2]; [5],"RRT = 1.50, % = 0.20"
same,"Other Impurities, RRT = 1.56",[2]; [5],"RRT = 1.56, % = 0.10"
same,Purity,[2]; [5],100.10%
same,Total Impurities,[2]; [5],1.60%
same,Water content,[2]; [5],5.9%
same,pH,[2]; [5],10.4
same,Appearance,[2]; [6],White crystalline
same,Azaerythromycin,[2]; [6],0.3%
same,"Other Impurities, RRT = 0.10",[2]; [6],"RRT = 0.10, % = 0.20"
same,"Other Impurities, RRT = 0.24",[2]; [6],"RRT = 0.24, % = 0.10"
same,"Other Impurities, RRT = 0.35",[2]; [6],"RRT = 0.35, % = 0.10"
same,"Other Impurities, RRT = 0.43",[2]; [6],"RRT = 0.43, % = 0.30"
same,"Other Impurities, RRT = 0.46",[2]; [6],"RRT = 0.46, % = 0.07"
same,"Other Impurities, RRT = 0.49",[2]; [6],"RRT = 0.49, % = 0.20"
same,"Other Impurities, RRT = 0.81",[2]; [6],"RRT = 0.81, % = 0.10"
same,"Other Impurities, RRT = 0.84",[2]; [6],"RRT = 0.84, % = 0.08"
same,"Other Impurities, RRT = 1.50",[2]; [6],"RRT = 1.50, % = 0.20"
same,"Other Impurities, RRT = 1.55",[2]; [6],"RRT = 1.55, % = 0.10"
same,Purity,[2]; [6],98.70%
same,Total Impurities,[2]; [6],1.80%
same,Water content,[2]; [6],5.8%
same,pH,[2]; [6],10.2
same,degradation after storage,"[3]; 3 months (at least about 3 months), 40° C. and 75% relative humidity",less than 2 % (w/w)
same,hygroscopicity (in words),[3]; [7],non-hygroscopic
same,stability (in words),[3]; [7],stable
same,water content after storage (in words),[3]; 3 months under accelerated conditions,remained substantially unchanged
same,Appearance,[3]; [8],White
same,Azaerythromycin,[3]; [8],0.3%
same,"Other Impurities, RRT = 0.23",[3]; [8],% = 0.10
same,"Other Impurities, RRT = 0.26",[3]; [8],% = 0.20
same,"Other Impurities, RRT = 0.34",[3]; [8],% = 0.10
same,"Other Impurities, RRT = 0.42",[3]; [8],% = 0.30
same,"Other Impurities, RRT = 0.45",[3]; [8],% = 0.07
same,"Other Impurities, RRT = 0.48",[3]; [8],% = 0.20
same,"Other Impurities, RRT = 1.45",[3]; [8],% = 0.05
same,"Other Impurities, RRT = 1.50",[3]; [8],% = 0.20
same,"Other Impurities, RRT = 1.56",[3]; [8],% = 0.10
same,Purity,[3]; [8],100.10%
same,Total Impurities,[3]; [8],1.60%
same,Water content,[3]; [8],5.9%
same,pH,[3]; [8],10.4
same,Appearance,[3]; [9],White
same,Azaerythromycin,[3]; [9],0.4%
same,"Other Impurities, RRT 0.23",[3]; [9],"0.23, 0.10%"
same,"Other Impurities, RRT 0.26",[3]; [9],"0.26, 0.20%"
same,"Other Impurities, RRT 0.35",[3]; [9],"0.35, 0.10%"
same,"Other Impurities, RRT 0.38",[3]; [9],"0.38, 0.05%"
same,"Other Impurities, RRT 0.43",[3]; [9],"0.43, 0.30%"
same,"Other Impurities, RRT 0.46",[3]; [9],"0.46, 0.08%"
same,"Other Impurities, RRT 0.48",[3]; [9],"0.48, 0.20%"
same,"Other Impurities, RRT 1.50",[3]; [9],"1.50, 0.20%"
same,"Other Impurities, RRT 1.56",[3]; [9],"1.56, 0.20%"
same,Purity,[3]; [9],101.00%
same,Total Impurities,[3]; [9],1.80%
same,Water content,[3]; [9],5.9%
same,pH,[3]; [9],10.0
same,Appearance,[3]; [10],White
same,Azaerythromycin,[3]; [10],0.3%
same,"Other Impurities, RRT 0.23",[3]; [10],"0.23, 0.10%"
same,"Other Impurities, RRT 0.25",[3]; [10],"0.25, 0.20%"
same,"Other Impurities, RRT 0.34",[3]; [10],"0.34, 0.10%"
same,"Other Impurities, RRT 0.42",[3]; [10],"0.42, 0.40%"
same,"Other Impurities, RRT 0.45",[3]; [10],"0.45, 0.05%"
same,"Other Impurities, RRT 0.48",[3]; [10],"0.48, 0.20%"
same,"Other Impurities, RRT 1.50",[3]; [10],"1.50, 0.20%"
same,"Other Impurities, RRT 1.56",[3]; [10],"1.56, 0.10%"
same,Purity,[3]; [10],99.50%
same,Total Impurities,[3]; [10],1.70%
same,Water content,[3]; [10],5.8%
same,pH,[3]; [10],10.3
same,Appearance,[3]; [11],White
same,Azaerythromycin,[3]; [11],0.3%
same,"Other Impurities, RRT 0.14",[3]; [11],"0.14, 0.20%"
same,"Other Impurities, RRT 0.24",[3]; [11],"0.24, 0.10%"
same,"Other Impurities, RRT 0.35",[3]; [11],"0.35, 0.20%"
same,"Other Impurities, RRT 0.43",[3]; [11],"0.43, 0.40%"
same,"Other Impurities, RRT 0.46",[3]; [11],"0.46, 0.07%"
same,"Other Impurities, RRT 0.49",[3]; [11],"0.49, 0.20%"
same,"Other Impurities, RRT 0.81",[3]; [11],"0.81, 0.06%"
same,"Other Impurities, RRT 0.85",[3]; [11],"0.85, 0.05%"
same,"Other Impurities, RRT 1.50",[3]; [11],"1.50, 0.20%"
same,"Other Impurities, RRT 1.55",[3]; [11],"1.55, 0.08%"
same,Purity,[3]; [11],98.10%
same,Total Impurities,[3]; [11],1.90%
same,Water content,[3]; [11],5.7%
same,pH,[3]; [11],10.3
same,degradation after storage,[3]; at least 3 months at 40° C. and 75% relative humidity,less than 2%
same,change in the water content after storage,[3]; at least about 3 months at 40° C. and 75% relative humidity,less than 5%
